ChEMBL document CHEMBL3813664, “Synthesis and evaluation of biphenyl derivatives as potential downregulators of VEGF protein secretion and telomerase-related gene expressions” (Bioorg Med Chem, 2016)
≈ marks a conversion by molar mass, not a printed value.

Experiments:
HEK293 = assay: Cytotoxicity against HEK293 cells assessed as reduction in cell growth after 3 days by MTT assay; type: cell-based; settings: Homo sapiens, HEK293, 72 h
HT-29 [1] = assay: Cytotoxicity against human HT-29 cells assessed as reduction in cell growth after 3 days by MTT assay; type: functional, cell-based; settings: HT-29, 72 h
MCF7 = assay: Cytotoxicity against human MCF7 cells assessed as reduction in cell growth after 3 days by MTT assay; type: functional, cell-based; settings: MCF7, 72 h
[2] = Therapeutic index, ratio of IC50 for HEK293 cells to IC50 for human HT-29 cells; type: cell-based; settings: HEK293 cells versus HT-29 cells, read-out: Ratio IC50
[3] = Therapeutic index, ratio of IC50 for HEK293 cells to IC50 for human MCF7 cells; type: cell-based; settings: HEK293 cells versus MCF7 cells, read-out: Ratio IC50
HT-29 [4] = assay: Downregulation of VEGFA-165 secretion in human HT-29 cells assessed as protein secretion levels at 15 ug/ml after 72 hrs by ELISA relative to control; type: functional
HT-29 [5] = assay: Downregulation of VEGFA gene expression in human HT-29 cells assessed as gene expression levels at 15 ug/ml after 48 hrs by RT-qPCR analysis relative to control; type: functional
HT-29 [6] = assay: Downregulation of TERT gene expression in human HT-29 cells assessed as gene expression levels at 15 ug/ml after 48 hrs by RT-qPCR analysis relative to control; type: functional
HT-29 [7] = assay: Downregulation of c-Myc gene expression in human HT-29 cells assessed as gene expression levels at 15 ug/ml after 48 hrs by RT-qPCR analysis relative to control; type: functional
HT-29 [8] = assay: Downregulation of VEGFA-165 secretion in human HT-29 cells assessed as protein secretion levels at 3 ug/ml after 72 hrs by ELISA relative to control; type: functional
HT-29 [9] = assay: Downregulation of VEGFA gene expression in human HT-29 cells assessed as gene expression levels at 3 ug/ml after 48 hrs by RT-qPCR analysis relative to control; type: functional
HT-29 [10] = assay: Downregulation of TERT gene expression in human HT-29 cells assessed as gene expression levels at 3 ug/ml after 48 hrs by RT-qPCR analysis relative to control; type: functional
HT-29 [11] = assay: Downregulation of c-Myc gene expression in human HT-29 cells assessed as gene expression levels at 3 ug/ml after 48 hrs by RT-qPCR analysis relative to control; type: functional

Structure (SMILES)	IC50 (HEK293)	IC50 (HT-29 [1])	IC50 (MCF7)	selectivity ratio [2]	selectivity ratio [3]	Activity (HT-29 [4])	Activity (HT-29 [5])	Activity (HT-29 [6])	Activity (HT-29 [7])	Activity (HT-29 [8])	Activity (HT-29 [9])	Activity (HT-29 [10])	Activity (HT-29 [11])
Nc1ccc(-c2cccc(O)c2)cc1	55 µg/mL (≈ 297 µM)	49.3 µg/mL (≈ 266 µM)	> 100 µg/mL	1.1	< 0.6								
COc1ccc(-c2ccccc2)cc1OC	26 µg/mL (≈ 121 µM)	41 µg/mL (≈ 191 µM)	45 µg/mL (≈ 210 µM)	0.6	0.6								
COc1ccc(-c2ccccc2O)cc1	44 µg/mL (≈ 220 µM)	47 µg/mL (≈ 235 µM)	42 µg/mL (≈ 210 µM)	0.9	1								
COc1ccc(-c2ccccc2N)cc1OC	49.9 µg/mL (≈ 218 µM)	15 µg/mL (≈ 65.4 µM)	18 µg/mL (≈ 78.5 µM)	3.3	3	56%	61%	86%	50%				
Oc1cccc(-c2ccccc2)c1	25 µg/mL (≈ 147 µM)	28 µg/mL (≈ 165 µM)	27.4 µg/mL (≈ 161 µM)	0.9	0.9								
COc1ccc(-c2ccccc2)cc1	17 µg/mL (≈ 92.3 µM)	45 µg/mL (≈ 244 µM)	> 100 µg/mL	0.4	< 0.2								
Nc1cccc(-c2ccc(O)cc2)c1	> 100 µg/mL	5.4 µg/mL (≈ 29.2 µM)	6.5 µg/mL (≈ 35.1 µM)	> 18	> 15					55%	42%	78%	39%
Oc1cccc(-c2cccc(O)c2)c1	68 µg/mL (≈ 365 µM)	2.5 µg/mL (≈ 13.4 µM)	51.6 µg/mL (≈ 277 µM)	28	1.3					50%	5%	29%	16%
COc1ccccc1-c1ccccc1	52 µg/mL (≈ 282 µM)	51 µg/mL (≈ 277 µM)	1.6 µg/mL (≈ 8.68 µM)	1	33								
COc1ccc(-c2cccc(O)c2)cc1	14.6 µg/mL (≈ 72.9 µM)	72 µg/mL (≈ 360 µM)	48 µg/mL (≈ 240 µM)	0.2	0.3								
Nc1cccc(-c2ccccc2)c1	54 µg/mL (≈ 319 µM)	42 µg/mL (≈ 248 µM)	60 µg/mL (≈ 355 µM)	1.3	0.9								
COc1ccc(-c2ccc(N)cc2)cc1OC	23 µg/mL (≈ 100 µM)	2 µg/mL (≈ 8.72 µM)	5.5 µg/mL (≈ 24 µM)	12	4					48%	48%	100%	92%
Oc1ccc(-c2ccccc2O)cc1	54 µg/mL (≈ 290 µM)	1.4 µg/mL (≈ 7.52 µM)	> 100 µg/mL	38						62%	16%	11%	11%
Nc1ccccc1-c1ccccc1O	54.1 µg/mL (≈ 292 µM)	44 µg/mL (≈ 238 µM)	56 µg/mL (≈ 302 µM)	1.2	1								
COc1ccccc1-c1cccc(O)c1	50 µg/mL (≈ 250 µM)	22 µg/mL (≈ 110 µM)	44 µg/mL (≈ 220 µM)	2.3	1.1	31%	76%	62%	50%				
Oc1ccccc1-c1ccccc1O	57 µg/mL (≈ 306 µM)	2.5 µg/mL (≈ 13.4 µM)	60 µg/mL (≈ 322 µM)	23	1					57%	23%	3%	18%
Oc1ccccc1-c1ccccc1 [2-PHENYLPHENOL]	31.4 µg/mL (≈ 184 µM)	55 µg/mL (≈ 323 µM)	51 µg/mL (≈ 300 µM)	0.6	0.6								
COc1ccc(-c2cccc(N)c2)c(OC)c1	29.2 µg/mL (≈ 127 µM)	49 µg/mL (≈ 214 µM)	> 100 µg/mL	0.6	< 0.3								
Nc1ccccc1-c1ccccc1	54.9 µg/mL (≈ 324 µM)	16 µg/mL (≈ 94.5 µM)	2.9 µg/mL (≈ 17.1 µM)	3.3	19	91%	65%	56%	53%				
Nc1ccc(-c2ccc(O)cc2)cc1	62 µg/mL (≈ 335 µM)	56 µg/mL (≈ 302 µM)	49.9 µg/mL (≈ 269 µM)	1.1	1.2								
COc1cccc(-c2ccccc2O)c1	39 µg/mL (≈ 195 µM)	35 µg/mL (≈ 175 µM)	43 µg/mL (≈ 215 µM)	1.1	0.9								

Structure (SMILES)	IC50 (HEK293)	IC50 (HT-29 [1])	IC50 (MCF7)	selectivity ratio [2]	selectivity ratio [3]	Activity (HT-29 [4])	Activity (HT-29 [5])	Activity (HT-29 [6])	Activity (HT-29 [7])	Activity (HT-29 [8])	Activity (HT-29 [9])	Activity (HT-29 [10])	Activity (HT-29 [11])
COc1ccc(-c2ccccc2)c(OC)c1	27 µg/mL (≈ 126 µM)	55.2 µg/mL (≈ 258 µM)	> 100 µg/mL	0.5	< 0.3								
Nc1ccccc1-c1cccc(O)c1	10.5 µg/mL (≈ 56.7 µM)	9.2 µg/mL (≈ 49.7 µM)	16 µg/mL (≈ 86.4 µM)	1.1	0.7					48%	54%	77%	38%
COc1ccc(-c2ccc(O)cc2)c(OC)c1	> 100 µg/mL	21 µg/mL (≈ 91.2 µM)	47 µg/mL (≈ 204 µM)	> 5	> 2	35%	37%	56%	87%				
COc1ccc(-c2ccc(N)cc2)c(OC)c1	22 µg/mL (≈ 96 µM)	2.2 µg/mL (≈ 9.6 µM)	> 100 µg/mL	10	< 0.2					51%	41%	40%	39%
Nc1ccccc1-c1ccc(O)cc1	50 µg/mL (≈ 270 µM)	51 µg/mL (≈ 275 µM)	44.3 µg/mL (≈ 239 µM)	1	1.1								
Nc1cccc(-c2ccccc2O)c1	47 µg/mL (≈ 254 µM)	49 µg/mL (≈ 265 µM)	28 µg/mL (≈ 151 µM)	1	1.7								
COc1ccc(-c2ccccc2O)cc1OC	23 µg/mL (≈ 99.9 µM)	> 100 µg/mL	55 µg/mL (≈ 239 µM)	< 0.2	0.4								
Oc1ccc(-c2cccc(O)c2)cc1	31 µg/mL (≈ 166 µM)	3.4 µg/mL (≈ 18.3 µM)	> 100 µg/mL	9	9					52%	35%	30%	39%
COc1ccc(-c2cccc(N)c2)cc1OC	20 µg/mL (≈ 87.2 µM)	4 µg/mL (≈ 17.4 µM)	> 100 µg/mL	5	< 0.2					42%	57%	90%	40%
COc1ccccc1-c1ccc(O)cc1	44 µg/mL (≈ 220 µM)	49 µg/mL (≈ 245 µM)	55 µg/mL (≈ 275 µM)	0.9	0.8								
Nc1ccc(-c2ccccc2)cc1 [BIPHENYL-4-AMINE]	> 100 µg/mL	> 100 µg/mL	1.4 µg/mL (≈ 8.27 µM)		> 69								
COc1ccc(-c2cccc(O)c2)c(OC)c1	28 µg/mL (≈ 122 µM)	54 µg/mL (≈ 235 µM)	50.2 µg/mL (≈ 218 µM)	0.5	0.6								
Oc1cccc(-c2ccccc2O)c1	> 100 µg/mL	5.2 µg/mL (≈ 27.9 µM)	> 100 µg/mL	> 19						57%	10%	18%	87%
COc1ccc(-c2ccccc2N)c(OC)c1	> 100 µg/mL	56 µg/mL (≈ 244 µM)	56 µg/mL (≈ 244 µM)	> 2	> 2								
Nc1ccc(-c2ccccc2O)cc1	31 µg/mL (≈ 167 µM)	27.3 µg/mL (≈ 147 µM)	52 µg/mL (≈ 281 µM)	1.2	0.6								
COc1ccc(-c2ccc(O)cc2)cc1	2 µg/mL (≈ 9.99 µM)	> 100 µg/mL	53 µg/mL (≈ 265 µM)	< 0.1	< 0.1								
COc1cccc(-c2ccc(O)cc2)c1	35 µg/mL (≈ 175 µM)	24 µg/mL (≈ 120 µM)	41 µg/mL (≈ 205 µM)	1.5	0.9	48%	51%	35%	34%				
COc1ccc(-c2cccc(O)c2)cc1OC	23.1 µg/mL (≈ 100 µM)	29 µg/mL (≈ 126 µM)	48 µg/mL (≈ 208 µM)	0.8	0.5								
COc1ccccc1-c1ccccc1O	54 µg/mL (≈ 270 µM)	2.7 µg/mL (≈ 13.5 µM)	> 100 µg/mL	20	< 0.5					33%	17%	3%	6%
Nc1cccc(-c2cccc(O)c2)c1	50.1 µg/mL (≈ 270 µM)	54 µg/mL (≈ 292 µM)	99 µg/mL (≈ 534 µM)	0.9	0.5								
Oc1ccc(-c2ccc(O)cc2)cc1	5.1 µg/mL (≈ 27.4 µM)	13.9 µg/mL (≈ 74.6 µM)	17.8 µg/mL (≈ 95.6 µM)	0.4	0.3								
